In paper PMC3914206:

Legend:
Type in all cases: binding
Conditions in all cases: Compound Concentration 10 µM
panel of 442 kinases [1] = target: T1, panel of 442 kinases (Homo sapiens, UniProt Q13627)
T1 construct: purchased KINOMEscan
From the text: (§1) We assessed the selectivity of members of this scaffold using the KINOMEscan methodology across a near comprehensive panel of 442 kinases [[18,27]].

panel of 442 kinases [2] = target: T2, panel of 442 kinases (Homo sapiens, UniProt Q9Y5S2)
T2 construct: purchased KINOMEscan
T2 sequence (Q9Y5S2 whole entry): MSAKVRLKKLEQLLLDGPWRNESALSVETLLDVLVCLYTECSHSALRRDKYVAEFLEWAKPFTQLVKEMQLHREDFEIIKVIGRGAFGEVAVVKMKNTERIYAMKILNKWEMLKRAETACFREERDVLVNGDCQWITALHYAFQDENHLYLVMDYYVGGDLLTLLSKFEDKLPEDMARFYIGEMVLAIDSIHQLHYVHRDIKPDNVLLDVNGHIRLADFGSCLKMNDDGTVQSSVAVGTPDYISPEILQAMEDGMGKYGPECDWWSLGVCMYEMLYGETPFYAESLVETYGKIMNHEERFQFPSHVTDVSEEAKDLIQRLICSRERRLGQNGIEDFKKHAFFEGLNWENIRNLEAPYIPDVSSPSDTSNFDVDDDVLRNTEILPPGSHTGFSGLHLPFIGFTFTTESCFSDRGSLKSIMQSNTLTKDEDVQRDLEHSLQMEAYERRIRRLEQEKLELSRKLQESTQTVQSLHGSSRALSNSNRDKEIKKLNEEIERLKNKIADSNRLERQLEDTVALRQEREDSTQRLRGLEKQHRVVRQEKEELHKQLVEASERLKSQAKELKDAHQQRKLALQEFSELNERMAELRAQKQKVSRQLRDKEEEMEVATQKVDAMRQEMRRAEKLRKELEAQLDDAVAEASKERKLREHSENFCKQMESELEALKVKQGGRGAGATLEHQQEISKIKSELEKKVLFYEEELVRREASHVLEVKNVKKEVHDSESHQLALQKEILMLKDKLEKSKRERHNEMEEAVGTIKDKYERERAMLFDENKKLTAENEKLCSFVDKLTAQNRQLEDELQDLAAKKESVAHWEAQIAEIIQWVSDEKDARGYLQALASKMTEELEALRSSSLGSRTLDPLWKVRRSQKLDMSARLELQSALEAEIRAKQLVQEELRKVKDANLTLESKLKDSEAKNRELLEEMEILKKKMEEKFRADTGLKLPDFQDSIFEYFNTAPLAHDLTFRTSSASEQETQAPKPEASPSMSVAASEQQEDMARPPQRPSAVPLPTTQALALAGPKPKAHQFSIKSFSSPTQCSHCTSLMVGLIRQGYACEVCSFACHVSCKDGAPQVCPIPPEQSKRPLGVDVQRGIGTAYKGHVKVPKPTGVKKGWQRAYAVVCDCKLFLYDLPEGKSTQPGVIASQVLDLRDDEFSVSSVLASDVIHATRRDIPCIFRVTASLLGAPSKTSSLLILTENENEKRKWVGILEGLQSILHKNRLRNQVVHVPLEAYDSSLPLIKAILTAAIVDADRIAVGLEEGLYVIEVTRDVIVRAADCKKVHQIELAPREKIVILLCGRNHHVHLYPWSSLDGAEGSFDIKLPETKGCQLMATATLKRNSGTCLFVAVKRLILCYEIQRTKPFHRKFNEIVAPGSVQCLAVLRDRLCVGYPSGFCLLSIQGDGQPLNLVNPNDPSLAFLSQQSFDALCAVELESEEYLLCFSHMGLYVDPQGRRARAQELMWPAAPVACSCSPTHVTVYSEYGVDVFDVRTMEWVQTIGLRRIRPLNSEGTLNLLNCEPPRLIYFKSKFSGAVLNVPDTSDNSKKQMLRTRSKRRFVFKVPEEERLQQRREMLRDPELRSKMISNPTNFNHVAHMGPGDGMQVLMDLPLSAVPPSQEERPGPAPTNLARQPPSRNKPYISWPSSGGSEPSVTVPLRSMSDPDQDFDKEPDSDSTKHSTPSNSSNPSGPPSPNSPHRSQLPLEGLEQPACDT
From the text: as §1

panel of 442 kinases [3] = target: T3, panel of 442 kinases (Homo sapiens, UniProt P15056, V600E)
T3 construct: purchased KINOMEscan
T3 sequence (P15056 whole entry V600E): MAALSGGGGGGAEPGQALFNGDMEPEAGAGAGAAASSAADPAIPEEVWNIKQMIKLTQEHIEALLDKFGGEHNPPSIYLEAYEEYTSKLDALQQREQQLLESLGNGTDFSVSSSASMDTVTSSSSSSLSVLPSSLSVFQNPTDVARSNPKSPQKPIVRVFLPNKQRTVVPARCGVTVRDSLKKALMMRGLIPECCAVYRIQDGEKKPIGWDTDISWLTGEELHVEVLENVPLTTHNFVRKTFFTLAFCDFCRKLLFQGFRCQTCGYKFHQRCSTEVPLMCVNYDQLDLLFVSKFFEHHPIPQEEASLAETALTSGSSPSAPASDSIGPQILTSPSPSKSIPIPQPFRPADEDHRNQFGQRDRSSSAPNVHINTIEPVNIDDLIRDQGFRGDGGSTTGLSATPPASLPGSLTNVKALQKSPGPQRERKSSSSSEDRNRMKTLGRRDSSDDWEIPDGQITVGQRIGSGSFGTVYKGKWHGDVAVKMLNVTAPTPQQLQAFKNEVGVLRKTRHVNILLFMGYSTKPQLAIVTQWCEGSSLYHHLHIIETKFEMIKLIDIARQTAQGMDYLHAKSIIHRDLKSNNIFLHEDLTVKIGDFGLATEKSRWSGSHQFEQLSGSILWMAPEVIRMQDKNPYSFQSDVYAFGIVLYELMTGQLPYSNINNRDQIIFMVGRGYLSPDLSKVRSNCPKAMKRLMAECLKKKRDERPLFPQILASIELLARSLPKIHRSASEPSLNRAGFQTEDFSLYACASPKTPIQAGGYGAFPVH
From the text: as §1

panel of 442 kinases [4] = target: T4, panel of 442 kinases (Homo sapiens, UniProt P10721, V559D)
T4 construct: purchased KINOMEscan
T4 sequence (P10721 26-976 V559D): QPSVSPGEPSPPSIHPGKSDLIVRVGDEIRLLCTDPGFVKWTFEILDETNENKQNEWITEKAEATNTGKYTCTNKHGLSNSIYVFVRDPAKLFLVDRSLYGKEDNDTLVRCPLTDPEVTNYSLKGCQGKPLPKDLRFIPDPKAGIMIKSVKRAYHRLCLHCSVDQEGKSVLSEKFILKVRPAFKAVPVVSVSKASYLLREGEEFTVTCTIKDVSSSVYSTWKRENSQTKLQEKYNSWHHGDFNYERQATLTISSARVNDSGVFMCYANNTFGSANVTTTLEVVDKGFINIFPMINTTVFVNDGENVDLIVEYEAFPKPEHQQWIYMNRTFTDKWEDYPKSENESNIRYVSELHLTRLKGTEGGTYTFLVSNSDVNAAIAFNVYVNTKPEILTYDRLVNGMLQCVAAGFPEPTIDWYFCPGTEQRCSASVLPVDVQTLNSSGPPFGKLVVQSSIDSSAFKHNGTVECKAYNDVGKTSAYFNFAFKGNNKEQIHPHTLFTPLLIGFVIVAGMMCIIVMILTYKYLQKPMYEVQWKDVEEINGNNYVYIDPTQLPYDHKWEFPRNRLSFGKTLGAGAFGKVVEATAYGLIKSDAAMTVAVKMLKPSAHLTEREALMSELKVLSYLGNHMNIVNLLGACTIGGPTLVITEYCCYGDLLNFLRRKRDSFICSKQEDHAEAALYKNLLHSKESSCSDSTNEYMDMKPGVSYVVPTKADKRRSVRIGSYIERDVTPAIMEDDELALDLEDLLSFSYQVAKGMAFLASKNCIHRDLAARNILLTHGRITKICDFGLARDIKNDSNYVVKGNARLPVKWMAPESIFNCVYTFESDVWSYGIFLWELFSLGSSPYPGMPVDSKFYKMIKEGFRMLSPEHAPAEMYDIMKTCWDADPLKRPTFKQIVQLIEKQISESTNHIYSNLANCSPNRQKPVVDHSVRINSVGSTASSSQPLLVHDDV
From the text: as §1

Row | Structure (SMILES) | KINOMEscan: DYRK1A (panel of 442 kinases [1]) | KINOMEscan: MRCKB (panel of 442 kinases [2]) | KINOMEscan: BRAF(V600E) (panel of 442 kinases [3]) | KINOMEscan: KIT(V559D) (panel of 442 kinases [4])
1 | COc1cc(C(=O)N2CCC(N3CCN(C)CC3)CC2)ccc1Nc1ncc2c(n1)N1CCc3cccc(c31)C(=O)N2C [Compound 24] | 67 |  |  | 
2 | CCOc1cc(C(=O)N2CCC(N3CCN(C)CC3)CC2)ccc1Nc1ncc2c(n1)N(C1CCCC1)c1ccccc1C(=O)N2C [Compound 26] | 88 | 100 | 100 | 100
3 | COc1cc(C(=O)N2CCC(N3CCN(C)CC3)CC2)ccc1Nc1ncc2c(n1)N(C1CCCC1)c1ccccc1C(=O)N2C [Compound 25, 11-cyclopentyl-2-((2-methoxy-4-(4-(4-methylpiperazin-1-yl)piperidine-1-carbonyl)phenyl)amino)-5-methyl-5H-benzo[e]pyrimido[5,4-b][1,4]diazepin-6(11H)-one] | 100 | 100 | 100 | 96
4 | COc1cc(C(=O)N2CCC(N3CCN(C)CC3)CC2)ccc1Nc1ncc2c(n1)N(C)c1ccccc1C(=O)N2C [15 (LRRK2-IN-1)] | 99 | 100 | 100 | 100
